The subject of the assay is DOHH2 cells. The assay is described as follows: Cell proliferation assay in DOHH2 cells (MTS). In kind it is cell-based. The procedure:
To investigate whether a compound is able to inhibit the activity of BTK in cells, a mechanism-based assay using DOHH2 (DSMZ catalog #: ACC47) cell was developed. In this assay, inhibition of BTK was detected by the inhibition of DOHH2 cells proliferation. Cells were collected and plated onto 96-well plates at the optimized cell density (5000 cells/well). Plates were incubated at 37° C., with 5% CO2 for 4 h. Compounds were serially diluted and added to the plates with the final concentrations as 10000, 3333.3, 1111.1, 370.4, 123.5, 41.2, 13.7, 4.6 and 1.5 nM. Plates were incubated at 37° C., with 5% CO2 for 120 h. An aliquot of 20 μL MTS/100 μL medium mixture solution were added to each well and the plates were incubated for exactly 2 h. The reaction was stopped by adding 25 μL 10% SDS to each well. The absorbance was measured by a microplate reader at 490 nm and 650 nm (reference wavelength). IC50 was calculated using GraphPad Prism 5.0.
Select compounds prepared as described above were assayed according to the biological procedures described herein.

Results on 29 compounds are retold here after patent US20220235049A1, “SUBSTITUTED PYRROLO [2, 3-b] PYRIDINE AND PYRAZOLO [3,4-b] PYRIDINE DERIVATIVES AS PROTEIN KINASE INHIBITORS” (Fochon Pharmaceuticals, Ltd., priority 2019, published 2022).

Usually IC50 stands for the point on the concentration scale where inhibition reaches its midpoint.

Structures are written as SMILES.

`O=C(c1ccc(Oc2ccccc2F)cc1F)c1c[nH]c2nccc(N[C@@H]3CC[C@@H](CO)OC3)c12` [Example 102, (2-fluoro-4-(2-fluorophenoxy)phenyl)(4-(((3R,6S)-6-(hydroxymethyl)tetrahydro-2H-pyran-3-yl)amino)-1H-pyrrolo[2,3-b]pyridin-3-yl)methanone] showed an IC50 (Homo sapiens, DOHH-2, 120 h) of 7 nM. Turning to `COc1cnc2[nH]cc(C(=O)c3ccc(Oc4ccccn4)cc3F)c2c1N[C@@H]1CC[C@@H](CO)OC1` [Example 196, (2-fluoro-4-(pyridin-2-yloxy)phenyl)(4-(((3R,6S)-6-(hydroxymethyl)tetrahydro-2H-pyran-3-yl)amino)-5-methoxy-1H-pyrrolo[2,3-b]pyridin-3-yl)methanone], where the note is “Homo sapiens, DOHH-2, 120 h”, the IC50 was 44 nM. Regarding `CCOc1cnc2[nH]cc(C(=O)c3ccc(Oc4ccccc4F)cc3C)c2c1N[C@@]12CO[C@H](CO)C1C2` (single isomer, unassigned) [Example 170], the IC50 (120 h) was found to be 12 nM. The compound `Cc1cc(Oc2ccccc2)ccc1C(=O)c1c[nH]c2ncc(F)c(N[C@@H]3CC[C@@H](CO)OC3)c12` [Example 15, (5-fluoro-4-(((3R,6S)-6-(hydroxymethyl)tetrahydro-2H-pyran-3-yl)amino)-1H-pyrrolo[2,3-b]pyridin-3-yl)(2-methyl-4-phenoxyphenyl)methanone] had an IC50 (Homo sapiens, DOHH-2, 120 h) of 85 nM. In the case of `COc1cnc2[nH]cc(C(=O)c3ccc(Oc4ccccc4F)cc3C)c2c1N[C@@]12CO[C@H](CO)C1C2` (single isomer, unassigned) [Example 167], under “120 h”, the IC50 came out at 18 nM. On the same count and under the same terms, the same measure for `Cc1cc(Oc2ccccc2)ccc1C(=O)c1c[nH]c2ncc(C#N)c(N[C@@]34COC(CO)[C@@H]3C4)c12` (single isomer, unassigned) [Example 20]: 20 nM.

In turn, `COc1cnc2[nH]cc(C(=O)c3ccc(Oc4c(F)cccc4F)cc3F)c2c1N[C@@H]1CC[C@@H](CO)OC1` [Example 192, (4-(2,6-difluorophenoxy)-2-fluorophenyl)(4-(((3R,6S)-6-(hydroxymethyl)tetrahydro-2H-pyran-3-yl)amino)-5-methoxy-1H-pyrrolo[2,3-b]pyridin-3-yl)methanone] came in with an IC50 (Homo sapiens, DOHH-2, 120 h) of 8 nM. Under “120 h”, `CCOc1cnc2[nH]cc(C(=O)c3ccc(Oc4ccccc4F)cc3F)c2c1N[C@@]12CO[C@H](CO)C1C2` (single isomer, unassigned) [Example 173] yielded an IC50 of 7 nM. As for `COc1cnc2[nH]cc(C(=O)c3ccc(Oc4c(F)cccc4F)cc3)c2c1N[C@@H]1CC[C@@H](CO)OC1` [Example 184, (4-(2,6-difluorophenoxy)phenyl)(4-(((3R,6S)-6-(hydroxymethyl)tetrahydro-2H-pyran-3-yl)amino)-5-methoxy-1H-pyrrolo[2,3-b]pyridin-3-yl)methanone], for the setting “Homo sapiens, DOHH-2, 120 h”, the IC50 is 1 nM.

Consider `CCOc1cnc2[nH]cc(C(=O)c3ccc(Oc4ccccc4F)cc3C)c2c1N[C@@H]1CC[C@@H](CO)OC1` [Example 64, (5-ethoxy-4-(((3R,6S)-6-(hydroxymethyl)tetrahydro-2H-pyran-3-yl)amino)-1H-pyrrolo[2,3-b]pyridin-3-yl)(4-(2-fluorophenoxy)-2-methylphenyl)methanone], for which half-maximal inhibition (Homo sapiens, DOHH-2, 120 h) (IC50) was put at 1 nM. On the same count and under the same terms, to `O=C(c1ccc(Oc2ccccc2F)cc1Cl)c1c[nH]c2ncc(Cl)c(N[C@@H]3CC[C@@H](CO)OC3)c12` [Example 100, (5-chloro-4-(((3R,6S)-6-(hydroxymethyl)tetrahydro-2H-pyran-3-yl)amino)-1H-pyrrolo[2,3-b]pyridin-3-yl)(2-chloro-4-(2-fluorophenoxy)phenyl)methanone] belongs 67 nM; to `N#Cc1cnc2[nH]cc(C(=O)c3ccc(Oc4ccccc4)c(Cl)c3Cl)c2c1N[C@@H]1CC[C@@H](CO)OC1` [Example 37, 3-(2,3-dichloro-4-phenoxybenzoyl)-4-(((3R,6S)-6-(hydroxymethyl)tetrahydro-2H-pyran-3-yl)amino)-1H-pyrrolo[2,3-b]pyridine-5-carbonitrile], 48 nM. Same read-out and setting: the same measure for `Cc1cc(Oc2ccccc2F)ccc1C(=O)c1c[nH]c2ncc(Cl)c(N[C@@H]3CC[C@@H](CO)OC3)c12` [Example 87, (5-chloro-4-(((3R,6S)-6-(hydroxymethyl)tetrahydro-2H-pyran-3-yl)amino)-1H-pyrrolo[2,3-b]pyridin-3-yl)(4-(2-fluorophenoxy)-2-methylphenyl)methanone]: 17 nM.

Take `CCOc1cnc2[nH]cc(C(=O)c3ccc(Oc4ccccc4)cc3F)c2c1N[C@@]12CO[C@H](CO)C1C2` (single isomer, unassigned) [Example 182]: it took 31 nM to reach half-maximal inhibition (120 h) (IC50). For the compound `COc1cnc2[nH]cc(C(=O)c3cnc(Oc4ccccc4F)cc3C)c2c1N[C@@H]1CC[C@@H](CO)OC1` [Example 76, (6-(2-fluorophenoxy)-4-methylpyridin-3-yl)(4-(((3R,6S)-6-(hydroxymethyl)tetrahydro-2H-pyran-3-yl)amino)-5-methoxy-1H-pyrrolo[2,3-b]pyridin-3-yl)methanone], the IC50 (Homo sapiens, DOHH-2, 120 h) is 47 nM. `O=C(c1ccc(Oc2ccccc2F)cc1)c1c[nH]c2nccc(N[C@@H]3CC[C@@H](CO)OC3)c12` [Example 104, (4-(2-fluorophenoxy)phenyl)(4-(((3R,6S)-6-(hydroxymethyl)tetrahydro-2H-pyran-3-yl)amino)-1H-pyrrolo[2,3-b]pyridin-3-yl)methanone]: the IC50 (Homo sapiens, DOHH-2, 120 h) was found to be 23 nM. On the same count and under the same terms, the same measure for `O=C(c1ccc(Oc2ccccc2F)cc1Cl)c1c[nH]c2nccc(N[C@@H]3CC[C@@H](CO)OC3)c12` [Example 30, (2-chloro-4-(2-fluorophenoxy)phenyl)(4-(((3R,6S)-6-(hydroxymethyl)tetrahydro-2H-pyran-3-yl)amino)-1H-pyrrolo[2,3-b]pyridin-3-yl)methanone]: 21 nM; for `Cc1cc(Oc2c(F)cccc2F)ccc1C(=O)c1c[nH]c2ncc(F)c(N[C@@H]3CC[C@@H](CO)OC3)c12` [Example 185, (4-(2,6-difluorophenoxy)-2-methylphenyl)(5-fluoro-4-(((3R,6S)-6-(hydroxymethyl)tetrahydro-2H-pyran-3-yl)amino)-1H-pyrrolo[2,3-b]pyridin-3-yl)methanone]: 14 nM; for `COc1cnc2[nH]cc(C(=O)c3c(F)cc(Oc4ccccc4F)cc3F)c2c1N[C@@H]1CC[C@@H](CO)OC1` [Example 194, (2,6-difluoro-4-(2-fluorophenoxy)phenyl)(4-(((3R,6S)-6-(hydroxymethyl)tetrahydro-2H-pyran-3-yl)amino)-5-methoxy-1H-pyrrolo[2,3-b]pyridin-3-yl)methanone]: 26 nM. Compound `COc1cnc2[nH]cc(C(=O)c3ccc(Oc4ccccc4F)cc3F)c2c1N[C@@]12CO[C@H](CO)C1C2` (single isomer, unassigned) [Example 168] gave an IC50 (120 h) of 8 nM. As for `Cc1cc(Oc2ccccc2F)ncc1C(=O)c1c[nH]c2nccc(N[C@@H]3CC[C@@H](CO)OC3)c12` [Example 103, (6-(2-fluorophenoxy)-4-methylpyridin-3-yl)(4-(((3R,6S)-6-(hydroxymethyl)tetrahydro-2H-pyran-3-yl)amino)-1H-pyrrolo[2,3-b]pyridin-3-yl)methanone], half-maximal inhibition (Homo sapiens, DOHH-2, 120 h) (IC50) was put at 39 nM. On the same count and under the same terms, the same measure for `CCOc1cnc2[nH]cc(C(=O)c3c(C)cc(Oc4ccccc4F)cc3F)c2c1N[C@@H]1CC[C@@H](CO)OC1` [Example 135, (5-ethoxy-4-(((3R,6S)-6-(hydroxymethyl)tetrahydro-2H-pyran-3-yl)amino)-1H-pyrrolo[2,3-b]pyridin-3-yl)(2-fluoro-4-(2-fluorophenoxy)-6-methylphenyl)methanone]: 1 nM; for `N#Cc1cnc2[nH]cc(C(=O)c3ccc(Oc4ccccc4F)cc3)c2c1N[C@@H]1CC[C@@H](CO)OC1` [Example 88, 3-(4-(2-fluorophenoxy)benzoyl)-4-(((3R,6S)-6-(hydroxymethyl)tetrahydro-2H-pyran-3-yl)amino)-1H-pyrrolo[2,3-b]pyridine-5-carbonitrile]: 99 nM. Turning to `Cc1cc(Oc2ccccc2)ccc1C(=O)c1c[nH]c2ncc(C#N)c(N[C@@]34COC(CO)[C@@H]3C4)c12` (single isomer, unassigned) [Example 19], where the note is “120 h”, the IC50 was determined as 88 nM. In turn, `COc1cnc2[nH]cc(C(=O)c3ccc(Oc4ccccc4F)cc3C)c2c1N[C@@]12CO[C@H](CO)C1C2` (single isomer, unassigned) [Example 166] gave an IC50 (Homo sapiens, DOHH-2, 120 h) of 21 nM. In turn, `COc1cnc2[nH]cc(C(=O)c3ccc(Oc4ccccc4F)cc3F)c2c1N[C@@]12CO[C@H](CO)C1C2` (single isomer, unassigned) [Example 169] yielded an IC50 (120 h) of 65 nM. Turning to `COc1cnc2[nH]cc(C(=O)c3c(F)cc(Oc4ccccn4)cc3F)c2c1N[C@@H]1CC[C@@H](CO)OC1` [Example 198, (2,6-difluoro-4-(pyridin-2-yloxy)phenyl)(4-(((3R,6S)-6-(hydroxymethyl)tetrahydro-2H-pyran-3-yl)amino)-5-methoxy-1H-pyrrolo[2,3-b]pyridin-3-yl)methanone], 52 nM corresponded to half-maximal inhibition (Homo sapiens, DOHH-2, 120 h) (IC50). The same measure, in the same setting: to `N#Cc1cnc2[nH]cc(C(=O)c3ccc(Oc4ccccc4F)cc3Cl)c2c1N[C@@H]1CC[C@@H](CO)OC1` [Example 32, 3-(2-chloro-4-(2-fluorophenoxy)benzoyl)-4-(((3R,6S)-6-(hydroxymethyl)tetrahydro-2H-pyran-3-yl)amino)-1H-pyrrolo[2,3-b]pyridine-5-carbonitrile] belongs 15 nM; to `O=C(c1ccc(Oc2ccccc2F)cc1F)c1c[nH]c2ncc(Cl)c(N[C@@H]3CC[C@@H](CO)OC3)c12` [Example 99, (5-chloro-4-(((3R,6S)-6-(hydroxymethyl)tetrahydro-2H-pyran-3-yl)amino)-1H-pyrrolo[2,3-b]pyridin-3-yl)(2-fluoro-4-(2-fluorophenoxy)phenyl)methanone], 24 nM.
